Experimental findings from PubChem BioAssay (NCI) are described below.

Some test systems named below: HCT-15 colon; SK-MEL-28 melanoma; EKVX NSCLC; ACHN renal; SF-268 CNS; M14 melanoma; SNB-19 CNS; MALME-3M melanoma; SK-MEL-2 melanoma; LOX IMVI melanoma.
What all share (experiment): NCI anticancer screen, dose series, 48 h

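Following 48 hours of exposure in 96-well plates, responses at five concentrations were used to interpolate endpoints linearly. At the GI50, growth is halved. Definition used: TGI = concentration required for complete inhibition of growth.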

As to `C/C=C/C(C#N)O[Si](C)(C)C` (configuration not stated), the TGI in the assay on HCT-15 colon, with SK-MEL-28 melanoma, in the assay on EKVX NSCLC, with ACHN renal, in the assay with SF-268 CNS and in the assay with M14 melanoma was over 100 µM each time. Also, the TGI with SNB-19 CNS, with MALME-3M melanoma and in the assay on SK-MEL-2 melanoma was over 100 µM in each case.
`Cc1nc(C(N)=O)c(N)n1CCN1CCN(C(=O)CCCCCCCCCCNC2N=CNc3nc[nH]c32)CC1` (configuration not stated): the TGI was over 100 µM in the assay on HCT-15 colon; 79.1 µM in the assay with SK-MEL-28 melanoma; over 100 µM with ACHN renal; over 100 µM in the assay on SF-268 CNS; 82.8 µM in the assay on M14 melanoma; over 100 µM in the assay on LOX IMVI melanoma. The TGI in the assay on SNB-19 CNS is over 100 µM; in the assay on MALME-3M melanoma it was over 100 µM; in the assay with SK-MEL-2 melanoma, 44.5 µM.
Regarding `CCc1cccc(C)c1NS(=O)(=O)c1ccccc1`, the TGI in the assay on HCT-15 colon, with SK-MEL-28 melanoma, in the assay on EKVX NSCLC, in the assay with ACHN renal, in the assay with M14 melanoma and in the assay with MALME-3M melanoma was over 100 µM each time. For the same compound, the TGI with SK-MEL-2 melanoma was over 100 µM.
For the compound `CO/N=C(\COc1ccc2c(c1)[nH]c1ccccc12)c1ccc(OC)cc1`, the GI50 in the assay on HCT-15 colon was over 100 µM; in the assay with SK-MEL-28 melanoma, 11.8 µM; in the assay with EKVX NSCLC, 26 µM; in the assay on ACHN renal, 18.8 µM; in the assay on SF-268 CNS, 56.1 µM; with M14 melanoma, over 100 µM. The GI50 in the assay with LOX IMVI melanoma was 19.6 µM; in the assay on SNB-19 CNS, 24.4 µM; with MALME-3M melanoma it was 9.71 µM. The TGI in the assay with HCT-15 colon was over 100 µM; in the assay with SK-MEL-28 melanoma it was 69.3 µM; in the assay with EKVX NSCLC, over 100 µM; in the assay with ACHN renal, over 100 µM; in the assay on SF-268 CNS it was over 100 µM; in the assay with M14 melanoma, over 100 µM. The TGI in the assay on LOX IMVI melanoma is over 100 µM; in the assay with SNB-19 CNS, over 100 µM; with MALME-3M melanoma, 74.6 µM.
For `O=C(/C=C/c1ccccc1)Oc1cccc2cccnc12`, the TGI with HCT-15 colon is 26.2 µM; with SK-MEL-28 melanoma, over 86.3 µM; with EKVX NSCLC, over 68.2 µM; in the assay with ACHN renal, over 100 µM; in the assay on SF-268 CNS, 13.7 µM; with M14 melanoma it was 14.8 µM. Also, the TGI in the assay with LOX IMVI melanoma was over 100 µM; in the assay on SNB-19 CNS, over 75.2 µM; in the assay with MALME-3M melanoma, 11.4 µM.
As to `COc1ccc(-c2noc(C(=O)O)c2-c2cc(OC)c(OC)c(OC)c2)cc1`, the GI50 is 0.881 µM in the assay on HCT-15 colon; 37.3 µM in the assay on SK-MEL-28 melanoma; 4.77 µM in the assay on EKVX NSCLC; 7.42 µM with ACHN renal; 7.63 µM in the assay with SF-268 CNS; 5.12 µM in the assay with LOX IMVI melanoma. For the same compound, the GI50 with SNB-19 CNS is 6.75 µM; with MALME-3M melanoma it was 8.02 µM; in the assay with SK-MEL-2 melanoma, 5.9 µM. Moreover, the TGI in the assay with HCT-15 colon, in the assay on SK-MEL-28 melanoma, in the assay with EKVX NSCLC, in the assay on ACHN renal, with SF-268 CNS and in the assay on LOX IMVI melanoma was over 100 µM each time. In addition, the TGI in the assay with SNB-19 CNS, in the assay on MALME-3M melanoma and with SK-MEL-2 melanoma was over 100 µM in each case.
As to `C=CCc1c(Cl)nc(Cl)nc1Cl`, the TGI came out at 0.938 µM in the assay with HCT-15 colon; 1.93 µM in the assay on SK-MEL-28 melanoma; 2.58 µM in the assay with EKVX NSCLC; 1.2 µM with ACHN renal; 14.4 µM in the assay with SF-268 CNS; 0.0714 µM in the assay with M14 melanoma. Besides, the TGI amounted to 0.344 µM with LOX IMVI melanoma, 2.21 µM in the assay on SNB-19 CNS and 1.47 µM with MALME-3M melanoma.
`CCc1c(C#N)c(=O)[nH]c(=O)n1CCN1CCN(C(=O)NCCCCCCNC(=O)N2CCN(CCn3c(CC)c(C#N)c(=O)[nH]c3=O)CC2)CC1`: the TGI with HCT-15 colon, in the assay on EKVX NSCLC, in the assay with ACHN renal, in the assay on M14 melanoma, in the assay with LOX IMVI melanoma and in the assay with SNB-19 CNS was over 100 µM in each case.
Regarding `CCSCCCSCCSCC`, the TGI in the assay on HCT-15 colon, with SK-MEL-28 melanoma, in the assay on EKVX NSCLC, in the assay on SF-268 CNS, with M14 melanoma and with LOX IMVI melanoma was over 100 µM throughout. The compound also showed a TGI in the assay on SNB-19 CNS of over 100 µM.
With `CNC(=S)Nc1ccc(OC)c2ccccc12`, the TGI with HCT-15 colon, with SK-MEL-28 melanoma, in the assay with ACHN renal, with SF-268 CNS, in the assay on M14 melanoma and with LOX IMVI melanoma was over 10 µM throughout. Also, the TGI with SNB-19 CNS and in the assay on MALME-3M melanoma was over 10 µM throughout.
`Cn1c(=O)nc2n(-c3ccc(O)cc3)c3ccccc3nc-2c1=O`: the TGI in the assay on HCT-15 colon, with SK-MEL-28 melanoma, in the assay on EKVX NSCLC, with ACHN renal, in the assay with SF-268 CNS and in the assay with M14 melanoma was over 100 µM in each case. Also, the TGI in the assay on SNB-19 CNS is over 100 µM; in the assay with MALME-3M melanoma, 69.4 µM; in the assay with SK-MEL-2 melanoma, over 100 µM.
In the case of `O=C1CC(CC(=O)C2CCCCC2=O)C(=O)N1` (configuration not stated), the TGI in the assay on SK-MEL-28 melanoma, in the assay on EKVX NSCLC, with ACHN renal, in the assay with SF-268 CNS, in the assay on M14 melanoma and with LOX IMVI melanoma was over 100 µM each time. Also, the TGI in the assay on SNB-19 CNS and in the assay with MALME-3M melanoma was over 100 µM in each case.
Turning to `Cc1c(OC(C)C(=O)O)ccc2c(-c3ccccc3)cc(=O)oc12` (configuration not stated), the TGI in the assay with SK-MEL-28 melanoma, in the assay with EKVX NSCLC, in the assay on ACHN renal, in the assay with SF-268 CNS, in the assay with M14 melanoma and in the assay with LOX IMVI melanoma was over 100 µM throughout. For the same compound, the TGI in the assay on SNB-19 CNS and in the assay on MALME-3M melanoma was over 100 µM each time.
In the case of `COC(=O)C1=CO[C@@H](OC2CC(CO)C(O)C(O)C2O)[C@@H]2[C@@H](C)[C@@H](OC(=O)/C=C/c3ccccc3)[C@@H](O)[C@H]12` (some centres not stated) (tested in a mixture with another compound), the TGI with SK-MEL-28 melanoma, in the assay with EKVX NSCLC, with ACHN renal, with SF-268 CNS, with M14 melanoma and in the assay with LOX IMVI melanoma was over 100 µM throughout. For the same compound, the TGI in the assay with MALME-3M melanoma was over 100 µM.
